Measurements from patent US7465752B2, “Pentenoic acid derivatives, processes for the preparation thereof, pharmaceutical compositions comprising them, and therapeutic applications thereof” (Merck Patent GmbH, priority 2004, dated 2008).

What was measured:
[1] = biological target: chimeric protein PPARα-GaI4 (Homo sapiens, UniProt Q07869); details: 50 μM, 18 hours contact, CV-1 cells
Procedure: (§1) The measurement of the PPAR activation was performed according to a lo technique described by Lehmann et al. (1995, J. Biol. Chem., 270, 12953-12956).
(§2) CV-1 cells (monkey kidney cells) are co-transfected with an expression vector for the chimeric proteins PPARα-GaI4 or PPARγ-GaI4 and with a “reporter” plasmid that allows the expression of the luciferase gene placed under the control of a promoter comprising GaI4 response elements.
(§3) The cells are plated into 96-well microplates and co-transfected using a commercial reagent with the reporter plasmid (pG5-tk-pGL3) and the expression vector for the chimeric protein (PPARα-GaI4 or PPARγ-GaI4). After incubating for 4 hours, whole culture medium (comprising 10% foetal calf serum) is added to the wells. After 24 hours, the medium is removed and replaced with whole medium comprising the test products (50 μM final). The products are left in contact with the cells for 18 hours. The cells are then lysed and the luciferase activity is measured using a luminometer.

[2] = biological target: chimeric protein PPARγ-GaI4 (Homo sapiens, UniProt P37231); details: 50 μM, 18 hours contact, CV-1 cells
Procedure: as §1, §2, §3

GaI4 alone = details: vector expressing GaI4 alone, in the presence of the product
Procedure: as §2, §3

db/db mice = details: 100 mg/kg/day orally for 15 days
Procedure: The antidiabetic and hypolipidaemiant activity of the compounds was determined orally on db/db mice.
Nine-week-old db/db mice are treated orally for 15 days with the compound of Example 6 (100 mg/kg/day). Each group studied comprises seven animals. After treatment for 15 days, retro-orbital samples are taken under mild anaesthesia and after fasting for four hours.
The following parameters were measured:
Assay of the glycaemia (glucose oxidase) and of the lipid parameters on the sera at D15 (COBAS): triglycerides, total cholesterol (CHOL), HDL cholesterol (HDL-C) and free fatty acids (FFA) (BioMérieux and Waco Chemicals assay kit).
The measurements reported represent mean values±standard error.

[3] = serum at D15, fasted 4 hours, mean ± standard error

Chain of chimeric protein PPARα-GaI4 (Q07869 239-466 limits assumed, change not shown): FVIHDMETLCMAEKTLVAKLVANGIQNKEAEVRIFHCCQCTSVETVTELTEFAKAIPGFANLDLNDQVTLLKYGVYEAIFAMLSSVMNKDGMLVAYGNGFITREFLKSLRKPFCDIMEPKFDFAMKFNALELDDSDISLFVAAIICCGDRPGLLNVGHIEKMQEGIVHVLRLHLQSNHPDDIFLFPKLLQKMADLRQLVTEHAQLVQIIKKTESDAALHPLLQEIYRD
Chain of chimeric protein PPARγ-GaI4 (P37231 238-503 limits assumed, change not shown): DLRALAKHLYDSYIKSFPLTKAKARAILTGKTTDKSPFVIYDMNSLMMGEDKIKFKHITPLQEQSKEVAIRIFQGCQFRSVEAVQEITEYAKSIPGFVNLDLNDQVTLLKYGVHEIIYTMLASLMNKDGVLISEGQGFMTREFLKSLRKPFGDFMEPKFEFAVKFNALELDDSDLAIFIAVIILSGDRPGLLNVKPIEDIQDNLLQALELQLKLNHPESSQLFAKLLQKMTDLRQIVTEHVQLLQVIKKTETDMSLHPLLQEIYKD

O=C(O)[C@@H](CC=Cc1ccccc1)Oc1ccc(-c2cc3ccccc3s2)cc1 (racemic) [Example 6, (R,S)-2-{[4-(benzo[b]thiophen-2-yl)phenyl]oxy}-5-phenylpent-4-enoic acid]
PPAR activation factor (reporter gene expression relative to control cells) [1]: 7
PPAR activation factor (reporter gene expression relative to control cells) [2]: 21
luciferase activity in absence of the PPAR α or γ ligand binding domain (GaI4 alone): zero
FFA, % var. (percentage of variation versus control) (db/db mice; D15, not significant): −10% (ns)
CHOL, % var. (percentage of variation versus control) (db/db mice; D15, p < 0.01 versus control): −20% (**)
Glycaemia, % var. (percentage of variation versus control) (db/db mice; D15, p < 0.01 versus control): −50% (**)
HDL-C, % var. (percentage of variation versus control) (db/db mice; D15, p < 0.01 versus control): −25% (**)
Triglycerides, % var. (percentage of variation versus control) (db/db mice; D15, p < 0.05 versus control): −31% (*)
CHOL (total cholesterol) (db/db mice; [3]): 2.98 ± 0.25 mM
FFA (free fatty acids) (db/db mice; [3]): 0.78 ± 0.18 mM
Glycaemia (db/db mice; [3]): 14.93 ± 4.29 Mm
HDL-C (db/db mice; [3]): 2.31 ± 0.20 Mm
Triglycerides (db/db mice; [3]): 1.47 ± 0.59 mM
